Laboratory results taken from patent US20240277841A2, “HUMAN CHIMERIC ANTIGEN RECEPTOR NEUTROPHILS, COMPOSITIONS, KITS AND METHODS OF USE” (Purdue Research Foundation, priority 2020, published 2024).
Entries after “also recorded” stand apart in the source; their conditions may differ.

Columns and labels:
[1] = system: glioblastoma; assay: Tumor lysis by CAR neutrophils with inhibitors; format: cell-based; settings: for glioblastoma viability: co-incubation with CAR neutrophils
[2] = system: TGFβ; assay: hPSC differentiation: endothelial-to-hematopoietic transition; format: cell-based, human; settings: 10 μM from day 4
Procedure: H9 was obtained from WiCell and maintained on Matrigel- or iMatrix 511-coated plates in mTeSR plus medium according to a previously published method. For differentiation, hPSCs were dissociated with 1 mM EDTA and seeded onto iMatrix 511-coated, 24-well plates at a cell density between 10,000 and 80,000 cells/cm^2 in mTeSR plus medium with 5 μM Y27632 for 24 hours (day −1). At day 0, cells were treated with 6 μM CHIR99021 (CHIR) in DMEM medium supplemented with 100 μg/mL ascorbic acid (DMEM/Vc), followed by a medium change with LasR basal medium at day 1, day 2, and day 3 and the addition of 50 ng/ml VEGF to the medium from day 2 to day 4. At day 4, medium was replaced by Stemline II medium (Sigma) supplemented with 10 μM SB431542. After 2 days, SB431542-containing medium was aspirated, and cells were maintained in Stemline II medium with 50 ng/mL SCF and FLT3L. At day 9 and day 12, the medium was aspirated and changed to Stemline II medium containing 50 ng/mL SCF and FLT3L and 25 ng/mL GM-CSF. At day 15, floating cells were gently harvested and used for terminal neutrophil differentiation. The floating cells were cultured in Stemline II medium supplemented with GlutaMAX 100X, ExCyte (0.2%), human G-CSF (150 ng/mL), and Am580 retinoic acid agonist (2.5 μM). After three days, the same medium with all components and cytokines was added to the top of the existing culture. […]

[3] = system: U87MG cells; assay: Neutrophil infiltration of 3D tumor spheroids; format: cell-based, human; settings: pre-treating neutrophils
Procedure: A 3-D biomimetic GBM model was constructed to mimic an in vivo tumor niche-like microenvironment with a dense, extracellular matrix and heterogeneous tumor cell subtypes.
Neutrophil infiltration of 3D tumor spheroids. The 3D tumor spheroids were obtained using the hanging drop method. Briefly, U87MG cells were suspended in MEM medium with 10% FBS and 0.3% methylcellulose at 2×10^6 cells/mL and deposited onto an inverted lid of 96-well plate as an individual drop using a 20 μL pipettor. The cover lid was then placed back onto the PBS-filled bottom chamber and incubated at 37° C. and 5% CO2. The hanging drops were monitored daily until cell aggregates were formed in ˜5-7 days. Each cell aggregate was transferred to a single well of a 24-well plate for the substream analysis. To assess the tumor penetration capability of CLTX T-CAR neutrophils, 2×10^5 neutrophils/well were added to the wells of 24-well plate and incubated with the tumor spheroids. After co-incubation for 24 hours, the tumor spheroids were fixed and stained for CD45 and DAPI. For the cytotoxicity analysis, the mixture of neutrophils and tumor spheroids were stained with 1 μM Calcein-AM and 1 μM propidium iodide (PI). The stained cells were then imaged using a Leica DMi-8 fluorescent microscope.

[4] = system: tumor cells; assay: Phagocytosis of tumor cells by neutrophils with inhibitor; format: cell-based; settings: 5 μM
[5] = system: neutrophil extracellular trap (NET) formation; settings: 3 μg/ml or more
[6] = system: mammals; settings: cited from earlier work
[7] = system: glioblastomas and other tumors; settings: cited from earlier work
[8] = system: invertebrates; settings: cited from earlier work
[9] = system: day 15 myeloid progenitors; assay: Myeloid progenitor monocyte/macrophage potential by flow cytometry; format: cell-based, human; settings: compared to GM-CSF
Procedure: (§1) Differentiated cells were gently pipetted and filtered through a 70 or 100 μm strainer sitting on a 50 mL tube. The cells were then pelleted by centrifugation and washed three times with PBS−/− solution containing 1% BSA. The cells were stained with appropriately conjugated antibodies for 25 min at room temperature in the dark and analyzed in an Accuri C6 plus cytometer (Beckton Dickinson) after washing with BSA-containing PBS−/− solution. Flow Jo software was used to process the collected flow data.
as §1, with “Flow cytometry analysis. Differentiated” for “Differentiated”, “twice” for “three times”, “bovine serum albumin (BSA).” for “BSA.”, “appropriate” for “appropriately”, “dark,” for “the dark”, “FlowJo” for “Flow Jo”

CC(=O)N[C@@H](CS)C(=O)O [N-acetylcysteine]
tumor lysis by CAR neutrophils [1]: significantly blocked | glioblastoma viability [1]: higher viability

NC(=O)c1ccc(-c2nc(-c3ccc4c(c3)OCO4)c(-c3ccccn3)[nH]2)cc1 [SB431542]
endothelial-to-hematopoietic transition (generation of CD45+CD43+ HSPCs) [2]: promoted endothelial-to-hematopoietic transition; also recorded: promoted EHT process

C=C1[C@@H](C)[C@H]2[C@H](Cc3ccccc3)NC(=O)[C@]23[C@H](OC(C)=O)/C=C/[C@@](C)(O)C(=O)[C@@H](C)C/C=C/[C@H]3[C@@H]1O [cytochalasin D]
effect on tumor cytotoxicity of CAR-neutrophils [3]: significantly reduced | effect on tumor-infiltrating activity of CAR-neutrophils [3]: significantly reduced | phagocytosis of tumor cells by neutrophils [4]: significantly reduced | tumor lysis by CAR neutrophils [1]: significantly blocked | glioblastoma viability [1]: higher viability

CC(C)c1cccc(C(C)C)c1O [propofol]
NET formation in neutrophils [5]: significant decrease | tumor lysis by CAR neutrophils [1]: significantly blocked

chlorotoxin [CLTX]
toxicity to mammals [6]: nontoxic | tumor binding [7]: binds selectively | toxicity to invertebrates [8]: highly toxic

B1: soluble MMP2: soluble matrix metallopeptidase 2 used to pre-treat neutrophils (protein, UniProt P08253 110-660, looked up)
72 kDa type IV collagenase: YNFFPRKPKWDKNQITYRIIGYTPDLDPETVDDAFARAFQVWSDVTPLRFSRIHDGEADIMINFGRWEHGDGYPFDGKDGLLAHAFAPGTGVGGDSHFDDDELWTLGEGQVVRVKYGNADGEYCKFPFLFNGKEYNSCTDTGRSDGFLWCSTTYNFEKDGKYGFCPHEALFTMGGNAEGQPCKFPFRFQGTSYDSCTTEGRTDGYRWCGTTEDYDRDKKYGFCPETAMSTVGGNSEGAPCVFPFTFLGNKYESCTSAGRSDGKMWCATTANYDDDRKWGFCPDQGYSLFLVAAHEFGHAMGLEHSQDPGALMAPIYTYTKNFRLSQDDIKGIQELYGASPDIDLGTGPTPTLGPVTPEICKQDIVFDGIAQIRGEIFFFKDRFIWRTVTPRDKPMGPLLVATFWPELPEKIDAVYEAPQEEKAVFFAGNEYWIYSASTLERGYPKPLTSLGLPPDVQRVDAAFNWSKNKKTYIFAGDKFWRYNEVKKKMDPGFPKLIADAWNAIPDNLDAVVDLQGGGHSYFFKGAYYLKLENQSLKSVKFGSIKSDWLGC
effect on tumor cytotoxicity of CAR-neutrophils [3]: significantly reduced | effect on tumor-infiltrating activity of CAR-neutrophils [3]: significantly reduced

B2: G-CSF: recombinant human granulocyte colony-stimulating factor (protein, UniProt P09919 31-207, looked up)
Granulocyte …: TPLGPASSLPQSFLLKCLEQVRKIQGDGAALQEKLVSECATYKLCHPEELVLLGHSLGIPWAPLSSCPSQALQLAGCLSQLHSGLFLYQGLLQALEGISPELGPTLDTLQLDVADFATTIWQQMEELGMAPALQPTQGAMPAFASAFQRRAGGVLVASHLQSFLEVSYRVLRHLAQP
number of CD14+ monocytes/macrophages [9]: significantly decreased
